Laboratory results from PubChem BioAssay (NCI).
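Abbreviation: GI50, concentration required for 50% inhibition of growth. TGI marks complete inhibition of growth.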

Legend:
Assay in all cases: DTP human tumour cell line panel, 384-well format
[1] = system: SK-OV-3 ovarian
[2] = system: KM12 colon
[3] = system: HS 578T breast
[4] = system: SN12C renal
[5] = system: SNB-19 CNS
[6] = system: EKVX NSCLC
[7] = system: PC-3 prostate
[8] = system: SF-268 CNS
[9] = system: K-562 leukemia
[10] = system: HOP-62 NSCLC
[11] = system: MOLT-4 leukemia
[12] = system: UACC-257 melanoma
[13] = system: RXF 393 renal
[14] = system: CCRF-CEM leukemia
[15] = system: NCI-H23 lung
[16] = system: BT-549 breast
[17] = system: NCI-H322M lung
[18] = system: UACC-62 melanoma
[19] = system: SF-295 CNS
[20] = system: CAKI-1 renal
[21] = system: SK-MEL-2 melanoma
[22] = system: NCI-H522 lung
[23] = system: DU-145 prostate
[24] = system: IGROV1 ovarian
[25] = system: HT29 colon
[26] = system: RPMI-8226 leukemia
[27] = system: HCT-116 colon
[28] = system: ACHN renal
[29] = system: T-47D breast
[30] = system: NCI/ADR-RES ovarian
[31] = system: HCT-15 colon
[32] = system: NCI-H226 lung
[33] = system: A498 renal
[34] = system: MDA-MB-435 melanoma
[35] = system: 786-0 renal
[36] = system: A549 NSCLC
[37] = system: MALME-3M melanoma
[38] = system: MDA-MB-231 breast
[39] = system: SNB-75 CNS
[40] = system: MCF7 breast
[41] = system: OVCAR-4 ovarian
[42] = system: MDA-MB-468 breast
[43] = system: OVCAR-8 ovarian
[44] = system: SF-539 CNS
[45] = system: UO-31 renal
[46] = system: LOX IMVI melanoma
[47] = system: TK-10 renal
[48] = system: SK-MEL-28 melanoma
[49] = system: U251 glioblastoma
[50] = system: OVCAR-3 ovarian
[51] = system: OVCAR-5 ovarian
[52] = system: HL-60(TB) leukemia
[53] = system: HOP-92 NSCLC
[54] = system: SW-620 colon
[55] = system: M14 melanoma

N[C@@H]1CCCC[C@H]1N.O=C([O-])C(=O)[O-].[Pt+4]
GI50 [1]: 31 µM | TGI [1]: > 100 µM | GI50 [2]: 20.8 µM | TGI [2]: > 100 µM | GI50 [3]: > 100 µM | TGI [3]: > 100 µM | GI50 [4]: 7.27 µM | TGI [4]: > 100 µM | GI50 [5]: 58.3 µM | TGI [5]: > 100 µM | GI50 [6]: > 100 µM | TGI [6]: > 100 µM | GI50 [7]: 8.53 µM | TGI [7]: > 100 µM | GI50 [8]: 11 µM | TGI [8]: > 100 µM | GI50 [9]: 4.56 µM | TGI [9]: 21.5 µM | GI50 [10]: 7.92 µM | TGI [10]: > 100 µM | GI50 [11]: 0.276 µM | TGI [11]: 0.7 µM | GI50 [12]: 24.1 µM | TGI [12]: > 100 µM | GI50 [13]: 10.6 µM | TGI [13]: 23.7 µM | GI50 [14]: 2.13 µM | TGI [14]: 4.74 µM | GI50 [15]: 8.68 µM | TGI [15]: 28.8 µM | GI50 [16]: 12.1 µM | TGI [16]: 27.8 µM | GI50 [17]: > 100 µM | TGI [17]: > 100 µM | GI50 [18]: 3.15 µM | TGI [18]: 25.1 µM | GI50 [19]: 27.4 µM | TGI [19]: > 100 µM | GI50 [20]: 1.03 µM | TGI [20]: 31.3 µM | GI50 [21]: 75.9 µM | TGI [21]: > 100 µM | GI50 [22]: 10.1 µM | TGI [22]: 21.7 µM | GI50 [23]: 7.47 µM | TGI [23]: 36 µM | GI50 [24]: 16.7 µM | TGI [24]: > 100 µM | GI50 [25]: 3.78 µM | TGI [25]: > 100 µM | GI50 [26]: 0.403 µM | TGI [26]: 1.85 µM | GI50 [27]: 3.36 µM | TGI [27]: > 100 µM | GI50 [28]: 2.88 µM | TGI [28]: 20.4 µM | GI50 [29]: 12.7 µM | TGI [29]: > 100 µM | GI50 [30]: 20.2 µM | TGI [30]: > 100 µM | GI50 [31]: 4.11 µM | TGI [31]: 40.8 µM | GI50 [32]: 12.5 µM | TGI [32]: 48.4 µM | GI50 [33]: 0.939 µM | TGI [33]: 54.1 µM | GI50 [34]: 9.49 µM | TGI [34]: > 100 µM | GI50 [35]: 3.2 µM | TGI [35]: 98.7 µM | GI50 [36]: 2.61 µM | TGI [36]: > 100 µM | GI50 [37]: 10.7 µM | TGI [37]: 22.8 µM | GI50 [38]: 25.8 µM | TGI [38]: > 100 µM | GI50 [39]: 30 µM | TGI [39]: > 100 µM | GI50 [40]: 5.43 µM | TGI [40]: > 100 µM | GI50 [41]: 19.8 µM | TGI [41]: > 100 µM | GI50 [42]: 2.33 µM | TGI [42]: 7.94 µM | GI50 [43]: 6.15 µM | TGI [43]: > 100 µM | GI50 [44]: 6.07 µM | TGI [44]: 35.5 µM | GI50 [45]: 10.4 µM | TGI [45]: 25.5 µM | GI50 [46]: 12.2 µM | TGI [46]: > 100 µM | GI50 [47]: 11.2 µM | TGI [47]: > 100 µM | GI50 [48]: 14.6 µM | TGI [48]: 63.9 µM | GI50 [49]: 8.83 µM | TGI [49]: > 100 µM | GI50 [50]: 8.13 µM | TGI [50]: 30.6 µM | GI50 [51]: 8.06 µM | TGI [51]: 47.8 µM | GI50 [52]: 0.523 µM | TGI [52]: 1.82 µM | GI50 [53]: 32.3 µM | TGI [53]: > 100 µM | GI50 [54]: 0.951 µM | TGI [54]: 55.8 µM | GI50 [55]: 8.78 µM | TGI [55]: 52.6 µM
